Laboratory results as given in US11279733B2, “Peptide antibiotics” (priority 2017, dated 2022).
Converted amounts (≈) assume the structure as drawn. Like-named read-outs stand apart in the source and are kept apart here. Positions of bridges follow the written chain, without caps; N, C: chain ends. Non-standard residues stand in square brackets, D forms with d. Residues, ends and D or L forms follow the SMILES beside them. *: point of attachment. Cholyl = C[C@H](CCC(=O)*)[C@H]1CC[C@H]2[C@@H]3[C@H](O)C[C@@H]4C[C@H](O)CC[C@]4(C)[C@H]3C[C@H](O)[C@]12C; Decanoyl(3R-OH) = CCCCCCC[C@@H](O)CC(=O)*; X1 = CCCCCCCN1CCC(C(=O)*)CC1; X7 = CCC(C)CCCCC(O)CC(=O)*; dDab = NCC[C@@H](N)C(=O)O; X2 = CCC(C)CCC(O)CC(=O)*; Dab = NCC[C@H](N)C(=O)O; Dap = NC[C@H](N)C(=O)O

How the values were obtained:
[1] = test system: A. baumannii ATCC 19606
Method in brief: (§1)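 Mid-log cultures grown in Mueller Hinton broth at 37° C were tested by 2-fold broth microdilution at 5×10^5 CFU/mL final. Compounds were dissolved in water and tested over a final range of 32 to 0.015 μg/mL.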

[2] = test system: A. baumannii GN_093 PmxR
Method in brief: as §1

[3] = test system: E. coli ATCC 25922
Method in brief: as §1

[4] = test system: K. pneumoniae ATCC 13883
Method in brief: as §1

[5] = test system: K. pneumoniae ATCC 700603, MDR
Method in brief: as §1

[6] = test system: K. pneumoniae ATCC BAA-2146, NDM-1 pos
Method in brief: as §1

[7] = test system: K. pneumoniae GN_102 PmxR
Method in brief: as §1

[8] = test system: K. pneumoniae GN_106, PmxR
Method in brief: as §1

[9] = test system: P. aeruginosa ATCC 27853
Method in brief: as §1

[10] = test system: P. aeruginosa GN_043, PmxR
Method in brief: as §1

[11] = test system: P. aeruginosa GN_105, PmxR
Method in brief: as §1

[12] = test system: S. aureus ATCC 25923, MSSA
Method in brief: as §1

[13] = in vitro; conditions: human
Method in brief: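 Cells were seeded at 4000 per well and allowed to attach for 24 h at 37 °C, 5% CO2, then exposed to compounds for 24 h. Resazurin (5 μM) was added for 2 h at 37 °C and fluorescence read at 560/590 nm. CC50 was derived by curve fitting of dose-dependent growth inhibition.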

[14] = in vitro; conditions: human; remark: listed apart in the source
Method in brief: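 HK2 cells were seeded at 2000 per well in DMEM/F12 with 10% FBS and left to attach for 24 h at 37 °C, 5% CO2. They were then exposed for 24 h to 3-fold peptide dilutions starting from 600 μM solutions in quadruplicate. LDH release was read at 450 nm, and CC50 was fitted from dose-response curves.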

[15] = in vitro; conditions: human; remark: listed apart in the source
Description: Cytotoxicity of the synthesised peptides was evaluated by comparison with commercially available colistin (polymyxin E), polymyxin B (Sigma chemical Co., St. Louis, Mo., U.S.A.) and synthetic octapeptin C4 by conducting lactate dehydrogenase (LDH) assay. CC50 values calculated based on curve fitting of dose dependent inhibition of cell growth represented the cytotoxicity of the peptide. Human kidney 2 (HK2) cells were seeded as 2000 cells per well in a 384 well cell culture plate in a final volume of 20 μL in DMEM/F12 medium (Invitrogen #11330057), in which 10% of FBS was added. Cells were incubated for 24 hours at 37° C., 5% CO2 to allow cells to attach to the plates. Similar conditions were employed for HEK293 and HepG2 cytotoxicity assays.
Cytotoxicity to HEK293 and HepG2 cells was determined using the resazurin assay (McMillian, M. K.; Li, L.; Parker, J. B.; Patel, L.; Zhong, Z.; Gunnett, J. W.; Powers, W. J.; Johnson, M. D. An improved resazurin-based cytotoxicity assay for hepatic cells; Cell Biol. Toxicol. 2002, 18, 157-173; O'Brien, J.; Wilson, I.; Orton, T.; Pognan, F. Investigation of the Alamar Blue (resazurin) fluorescent dye for the assessment of mammalian cell cytotoxicity. Eur. J. Biochem. 2000, 267, 5421-5426). In brief, HEK293 and HepG2 cells were seeded at 4000 cells/well in black-wall, clear-bottom 384-well plates (Corning, Australia) and incubated for 24 h at 37° C., 5% CO2. Compounds were then added into each well. After 24 h incubation, 5 μM resazurin was added per well and incubated at 37° C. for 2 h. Fluorescence intensity was then read using a Polarstar Omega with excitation/emission 560/590. The data was then analyzed using GraphPad Prism 6 software. CC50 values were determined using GraphPad Prism 6 software (Inc. La Jolla, Calif.).

| Structure (SMILES) | MIC A. baumannii ATCC 19606 [1] [µg/mL] | MIC A. baumannii GN_093 PmxR ([2]; GN 093 PmxR) [µg/mL] | MIC E. coli ATCC 25922 [3] [µg/mL] | MIC K. pneumoniae ATCC 13883 [4] [µg/mL] | MIC K. pneumoniae ATCC 700603, MDR [5] [µg/mL] | MIC K. pneumoniae ATCC BAA-2146, NDM-1 pos [6] [µg/mL] | MIC K. pneumoniae GN_102 PmxR ([7]; GN 102 PmxR) [µg/mL] | MIC K. pneumoniae GN_106, PmxR ([8]; GN 106, PmxR) [µg/mL] | MIC P. aeruginosa ATCC 27853 [9] [µg/mL] | MIC P. aeruginosa GN_043, PmxR ([10]; P. aeruginosa GN_043, PmxR) [µg/mL] | MIC P. aeruginosa GN_105, PmxR ([11]; GN 105, PmxR) [µg/mL] | MIC S. aureus ATCC 25923, MSSA [12] [µg/mL] | CC50 at 24 h [13] [µM] | CC50 at 24 h [14] [µM] | CC50 at 24 h [15] [µM] | other results |
| --- | --- | --- | --- | --- | --- | --- | --- | --- | --- | --- | --- | --- | --- | --- | --- | --- |
| CCCCCCC[C@@H](O)CC(=O)N[C@H](CCN)C(=O)N[C@H]1CNC(=O)[C@H](CC(C)C)NC(=O)[C@H](CCN)NC(=O)[C@H](CCN)NC(=O)[C@H](CC(C)C)NC(=O)[C@@H](CC(C)C)NC(=O)[C@H](CCN)NC1=O [compound 633, 3(R)OH-nC9CO-D-Dab-cyc[L-Dap-L-Dab-D-Leu-L-Leu-L-Dab-L-Dab-L-Leu]] ({Decanoyl(3R-OH)}-[dDab][Dap][Dab][dL]L[Dab][Dab]L; lactam 2-C) | >32 | >32 | 16 (≈ 16.1 µM) | >32 | 32 (≈ 32.1 µM) | 8 (≈ 8.03 µM) | >32 | >32 | 1 (≈ 1 µM) | 16 (≈ 16.1 µM) | >32 | >32 | > 300 | 104 | > 300 |  |
| CCCCCCC[C@@H](O)CC(=O)N[C@H](CCN)C(=O)N[C@H]1CCNC(=O)[C@H](CC(C)C)NC(=O)[C@H](CCN)NC(=O)[C@H](CCN)NC(=O)[C@H](CC(C)C)NC(=O)[C@@H](Cc2ccc(O)cc2)NC(=O)[C@H](CCN)NC1=O [compound 5008, 3(R)OH-nC9CO-D-Dab-cyc[L-Dab-L-Dab-D-Tyr-L-Leu-L-Dab-L-Dab-L-Leu]] ({Decanoyl(3R-OH)}-[dDab][Dab][Dab][dY]L[Dab][Dab]L; lactam 2-C) | 32 (≈ 30.2 µM) | 32 (≈ 30.2 µM) | 8 (≈ 7.54 µM) | 16 (≈ 15.1 µM) | 8 (≈ 7.54 µM) | 16 (≈ 15.1 µM) | 16 (≈ 15.1 µM) | 16 (≈ 15.1 µM) | 1 (≈ 0.943 µM) | 2 (≈ 1.89 µM) | 16 (≈ 15.1 µM) | 32 (≈ 30.2 µM) | > 300 | 106 | > 300 |  |
| CC(C)C[C@@H]1NC(=O)[C@H](CCN)NC(=O)[C@H](CCN)NC(=O)[C@H](CC(C)C)NC(=O)[C@@H](Cc2ccccc2)NC(=O)[C@H](CCN)NC(=O)[C@@H](NC(=O)[C@@H](CCN)NC(=O)CC[C@@H](C)[C@H]2CC[C@H]3[C@@H]4[C@H](O)C[C@@H]5C[C@H](O)CC[C@]5(C)[C@H]4C[C@H](O)[C@]23C)CCNC1=O [compound 5016, cholic acid-D-Dab-cyc[L-Dab-L-Dab-D-Phe-L-Leu-L-Dab-L-Dab-L-Leu]] (Cholyl-[dDab][Dab][Dab][dF]L[Dab][Dab]L; lactam 2-C) | 16 (≈ 12.7 µM) | 8 (≈ 6.33 µM) | 8 (≈ 6.33 µM) | 4 (≈ 3.16 µM) | 4 (≈ 3.16 µM) | 8 (≈ 6.33 µM) | 8 (≈ 6.33 µM) | 16 (≈ 12.7 µM) | 4 (≈ 3.16 µM) |  | 4 (≈ 3.16 µM) | 32 (≈ 25.3 µM) | 48 | 17 | 46 | MIC P. aeruginosa GN_043, PmxR [10]: 4 µg/mL (≈ 3.16 µM) |
| CCCCCCC[C@@H](O)CC(=O)N[C@@H](CCN)C(=O)N[C@H]1CCNC(=O)[C@H](CC(C)C)NC(=O)[C@H](CCN)NC(=O)[C@H](CCN)NC(=O)[C@H](C)NC(=O)[C@@H](Cc2ccccc2)NC(=O)[C@H](CCN)NC1=O [compound 5563, 3(R)OH-nC9CO-L-Dab-cyc[L-Dab-L-Dab-D-Phe-L-Ala-L-Dab-L-Dab-L-Leu]] ({Decanoyl(3R-OH)}-[Dab][Dab][Dab][dF]A[Dab][Dab]L; lactam 2-C) | >32 | >32 | 32 (≈ 31.9 µM) | >32 | 16 (≈ 16 µM) | 16 (≈ 16 µM) | 32 (≈ 31.9 µM) | 32 (≈ 31.9 µM) | 2 (≈ 2 µM) | >32 | 32 (≈ 31.9 µM) | >32 | > 300 | 158 | > 300 |  |
| CCC(C)CCCCC(O)CC(=O)N[C@@H](CCN)C(=O)N[C@H]1CCNC(=O)[C@H](CC(C)C)NC(=O)[C@H](CCN)NC(=O)[C@H](CCN)NC(=O)[C@H](CC(C)C)NC(=O)[C@@H](Cc2ccccc2)NC(=O)[C@H](CCN)NC1=O (stereo partly drawn) [compound 5567, nC7(8-Me)CH(OH)CH2CO-L-Dab-cyc[L-Dab-L-Dab-D-Phe-L-Leu-L-Dab-L-Dab-L-Leu]] (X7-[Dab][Dab][Dab][dF]L[Dab][Dab]L; lactam 2-C) |  |  |  |  |  |  |  |  |  |  |  |  | 292 | 54 | 150 | MIC, A. baumannii ATCC 19606 ([1]; Table 6): 8 µg/mL (≈ 7.56 µM); MIC A. baumannii GN_093 PmxR ([2]; Table 6, polymyxin-resistant): 16 µg/mL (≈ 15.1 µM); MIC, E. coli ATCC 25922 ([3]; Table 6): 8 µg/mL (≈ 7.56 µM); MIC, K. pneumoniae ATCC 13883 ([4]; Table 6): 8 µg/mL (≈ 7.56 µM); MIC, K. pneumoniae ATCC 700603, MDR ([5]; Table 6): 8 µg/mL (≈ 7.56 µM); MIC, K. pneumoniae ATCC BAA-2146, NDM-1 pos ([6]; Table 6): 8 µg/mL (≈ 7.56 µM); MIC K. pneumoniae GN_102 PmxR ([7]; Table 6, polymyxin-resistant): 8 µg/mL (≈ 7.56 µM); MIC K. pneumoniae GN_106, PmxR ([8]; Table 6, polymyxin-resistant): 4 µg/mL (≈ 3.78 µM); MIC, P. aeruginosa ATCC 27853 ([9]; Table 6): 2 µg/mL (≈ 1.89 µM); MIC P. aeruginosa GN_043, PmxR ([10]; Table 6, polymyxin-resistant): 2 µg/mL (≈ 1.89 µM); MIC P. aeruginosa GN_105, PmxR ([11]; Table 6, polymyxin-resistant): 2 µg/mL (≈ 1.89 µM); MIC, S. aureus ATCC 25923, MSSA ([12]; Table 6): 32 µg/mL (≈ 30.2 µM) |
| CCC(C)CCC(O)CC(=O)N[C@H](CCN)C(=O)N[C@H]1CCNC(=O)[C@H](CC(C)C)NC(=O)[C@H](CCN)NC(=O)[C@H](CCN)NC(=O)[C@H](Cc2ccccc2)NC(=O)[C@H](CC(C)C)NC(=O)[C@H](CCN)NC1=O (stereo partly drawn) [compound 6371, nC5(6-Me)CH(OH)CH2CO-D-Dab-cyc[L-Dab-L-Dab-L-Leu-L-Phe-L-Dab-L-Dab-L-Leu]] (X2-[dDab][Dab][Dab]LF[Dab][Dab]L; lactam 2-C) | >32 | >32 | >32 | >32 | >32 | >32 | >32 | >32 | 32 (≈ 31.1 µM) | >32 | >32 | >32 | > 300 | > 300 | > 300 |  |
| CCCCCCCN1CCC(C(=O)N[C@H](CCN)C(=O)N[C@H]2CCNC(=O)[C@H](CC(C)C)NC(=O)[C@H](CCN)NC(=O)[C@H](CCN)NC(=O)[C@H](Cc3ccccc3)NC(=O)[C@@H](CC(C)C)NC(=O)[C@H](CCN)NC2=O)CC1 [compound 6516, 1-heptylpiperidine-4-carboxylic acid-D-Dab-cyc[L-Dab-L-Dab-D-Leu-L-Phe-L-Dab-L-Dab-L-Leu]] (X1-[dDab][Dab][Dab][dL]F[Dab][Dab]L; lactam 2-C) | >32 |  | 16 (≈ 14.8 µM) | >32 | >32 | 32 (≈ 29.5 µM) |  |  | 1 (≈ 0.923 µM) | 0.5 (≈ 0.461 µM) | 2 (≈ 1.85 µM) | 32 (≈ 29.5 µM) | > 300 | 223 | > 300 |  |
